# Assay results published in paper PMC13492380, “Dissecting Structural and Functional Determinants of Microtubules Stabilization through Guided Chemical Modulation” (Journal of Medicinal Chemistry, 2026).
# System: human Kif5B 1–905-EGFP on stabilized MTs
# Test: Single-molecule kinesin-1 motility assay on stabilized MTs (TIRF)
# Assay type: biochemical
# Procedure: To gain mechanistic insight into the kinesin phenotype observed in cells, we reduced system complexity using an in vitro reconstitution assay. Specifically, we performed time-lapse imaging using total internal reflection fluorescence (TIRF) microscopy with immobilized and stabilized MTs in a flow chamber, into which we introduced 1.08 nM kinesin-1 motors (constitutively active human Kif5B 1–905-EGFP). We then analyzed individual kinesin movements to quantify landing rates (number of motors per unit MT length per unit time), run lengths, interaction times, and average velocities (Figure D, Movies S12–S15). In contrast to our experiments in cells, here we evaluated each structural modification individually to dissect the effects of MT lattice parameters on kinesin-1 mediated transport.
# Total Internal Reflection Fluorescence microscopy experiments were performed on an inverted widefield microscope Nikon-Ti2 E, equipped with a motorized XY-stage, a perfect focus system, Apo TIRF 60× oil NA 1.49 objective and PRIME BSY (Teledyne Photometrics) camera. MTs were visualized using Interference Reflection microscopy (IRM) and fluorescently labeled proteins were visualized sequentially by switching between microscope filter cubes for GFP and mCherry channels. The microscopes were controlled using NIS Elements software (Nikon). All experiments were conducted at RT.
# Microscopy chambers were prepared from two sandwiched silanized glass coverslips (22 × 22 mm^2 and 18 × 18 mm^2) attached through parafilm strips (heated for 15–20 s at 60 °C and gently pressed together) to form ∼2.5 mm wide parallel flow channels. Prior to the chamber assembly, the coverslips were washed in 3 M KOH, cleaned using Zepto plasma cleaner (Diener electronic) and silanized with hexamethyldisilazane. Flow channels were first incubated with 40 μgml^–1 antibiotin antibodies (Sigma, B3640) in PBS for 10 min, followed by incubation with 1% Pluronic F127 (Sigma-Aldrich, P2443) in PBS for at least 1 h. F127 was washed with BRB80 (80 mM PIPES, 1 mM EGTA, 1 mM MgCl2, pH 6.9).
# Porcine brain tubulin was isolated using the high-molarity PIPES procedure then mixed with Biotin labeled tubulin (Cytoskeleton Inc., T333P) in 1:49 ratio. All MTs were polymerized using 2% biotin-labeled tubulin. […] Polymerized MTs were centrifuged for 30 min at 18,000g in a Microfuge 18 Centrifuge (Beckman Coulter’s). […] Drug stabilized preassembly MTs (polymerized in the presence of drugs and GTP, stored and imaged in presence of drug) were polymerized from 4 mg mL^–1 biotinylated tubulin for 30 min at 37 °C in BRB80 supplemented with 4 mM MgCl2, 40 μM drug of interest in 5% DMSO, and 1 mM GTP. Polymerized MTs were centrifuged for 30 min at 18,000g in a Microfuge 18 Centrifuge (Beckman Coulter’s). […] GMPCPP stabilized MTs (GMPCPP polymerized) were assembled from 4 mg mL^–1 biotinylated tubulin for 2 h at 37 °C in BRB80 supplemented with 1 mM MgCl2 and 1 mM GMPCPP (Jena Bioscience, NU-405). Polymerized MTs were centrifuged for 30 min at 18,000g in a Microfuge 18 Centrifuge (Beckman Coulter’s) and pellets were resuspended and kept in BRB80.
# Stabilized MTs were flushed into the channel and incubated for 15–30 s to allow for surface attachment. Unbound MTs were removed by washing with BRB80 supplemented with 10 μM of drug. Prior the experiment, the solution was exchanged by motility buffer, MB (BRB80 containing 10 mM DTT, 20 mM D-glucose, 0.1% Tween-20, 0.5 mg/mL casein, 1 mM Mg-ATP, 0.02 mg/mL catalase, 0.22 mg/mL glucose oxidase, 10 μM drug). Subsequently, a solution containing either 1.08 nM Kif5b-EGFP or 10/40 nM mCherry-Tau in MB was introduced into the chamber.
# To assess kinesin-EGFP motility along MTs, an IRM image (50 ms exposure) was acquired followed by a 1 min video using 488 nm laser excitation (20% laser intensity, 300 ms exposure) with no delay. Two to three videos were recorded from different fields within the same channel and at least 2 channels were measure for each experimental condition. […]
SMILES,"kinesin-1 landing rate on stabilized MTs (1.08 nM Kif5b-EGFP, 10 μM drug)","kinesin-1 time bound on stabilized MTs (1.08 nM Kif5b-EGFP, 10 μM drug)","kinesin-1 velocity on stabilized MTs (1.08 nM Kif5b-EGFP, 10 μM drug)",kinesin-1 run length on stabilized MTs (compared to native-like MTs)
"CC(=O)OC1C(=O)C2(C)C(OC(=O)CCCCC(=O)OC3CCc4ccccc43)CC3OCC3(OC(C)=O)C2C(OC(=O)c2ccccc2)C2(O)CC(OC(=O)C(O)C(NC(=O)c3ccccc3)c3ccccc3)C(C)=C1C2(C)C (stereo not shown) [1a, 7-O-(6″-O-(2‴,3‴-Dihydroinden-1‴-yl)hexanedioyl) Paclitaxel]",increased on 1a compared with 1b,increased the time bound,decreased the velocity,
"CC(=O)O[C@H]1C(=O)[C@@]2(C)[C@H]([C@H](OC(=O)c3ccccc3)[C@]3(O)C[C@H](OC(=O)[C@H](O)[C@@H](NC(=O)c4ccccc4)c4ccccc4)C(C)=C1C3(C)C)[C@]1(OC(C)=O)CO[C@@H]1C[C@@H]2O [PTX, Paclitaxel]",,,,reduce run length
